In US8575216B2, “Method of treatment for acute myelogenous leukemia” (priority 2009, dated 2013):
Values joined by “and” are separate entries in the source; they are usually repeats but may differ in a detail not shown here. Identical values can stand only once. “Also recorded” adds a separate entry of the source. Like-named read-outs stand apart in the source and are kept apart here.

Columns and labels:
ERK phosphorylation = experiment: Ex vivo ERK phosphorylation in clinical AML samples (Western analysis); type: cell-based, human
primary AML cells [1] = experiment: Ex vivo cytotoxicity on primary AML cells (cell viability and apoptosis assays)
[2] = 5 patients, 0.125 mg/m^2, cited from earlier work
[3] = CINJ TPA Phase 1 study, relapsed/refractory malignancies: clinical response and toxicity; type: in vivo, human
Text: 12-O-tetradecanoylphorbol-13-acetate (TPA), an activator of protein kinase C, is being developed as a therapeutic agent for patients with acute myelogenous leukemia (AML) because of its profound effects on intracellular signaling pathways, it's capacity to induce differentiation and/or apoptosis in cell lines, and preliminary clinical data from China indicating effectiveness in myeloid malignancies (Han Z T, Zhu X X, Yang R Y, Sun J Z, Tian G F, Liu X J et al. Effect of intravenous infusions of 12-O-tetradecanoylphorbol-13-acetate (TPA) in patients with myelocytic leukemia: preliminary studies on therapeutic efficacy and toxicity. Proc Natl Acad Sci USA 1998; 95(9):5357-5361). A recently completed Investigator-initiated, Phase I study at The Cancer Institute of New Jersey/Robert Wood Johnson Medical School/UMDNJ represented the only FDA-approved study to administer TPA to patients in the United States and provided a unique opportunity to study the in vivo effects of TPA in patients with relapsed/refractory malignancies for which no standard therapies exist. Thus far clinical evaluation of TPA as a single agent has documented clinical safety when administered on days 1-5 and 8-12.
The initial CINJ TPA Phase 1 study enrolled 35 patients [23 with relapsed/refractory AML, 2 with other myeloid malignancies (CML-blast crisis, myelodysplasia with excess blasts), 3 with Hodgkin's Disease, 3 with non-Hodgkin's lymphoma and 4 with solid tumors]. The majority of patients had relapsed/refractory AML. Our clinical results include one AML patient with stable disease for >5 months, who received 8 TPA infusions. In a second AML patient, a pronounced (5-fold) decline in the number of circulating blasts was seen following TPA administration. This decline in leukemic blasts persisted for 4 weeks; the patient eventually died from a fungal infection.

[4] = AML patients, 48 h treatment with induction chemotherapy
Text: Clinical trial. […] The study was an open-label trial. […] Inclusion criteria included non-pregnant patients with an Eastern Cooperative Oncology Group performance status of 0 to 3, a bilirubin level more than twice the upper limits of normal, aspartate aminotransferase/alanine aminotransferase level more than thrice the upper limits of normal, and creatinine levels more than 1.5 times the upper limits of normal. Patients with current or recent gastrointestinal bleeding were excluded. […] Dexamethasone was administered at a dose of 10 mg p.o. every 6 h beginning at hour 0 and continuing until hour 48. […] Induction chemotherapy consisted of 3 days of idarubicin in combination with a 7-day continuous infusion of cytarabine. Some patients over the age of 60 received a reduced dose of idarubicin and the addition of etoposide (32).

primary AML cells [5] = tested on: primary AML cells

| Structure (SMILES) | ERK phosphorylation (ERK phosphorylation; all primary cultures analyzed by Western analysis, by 1 hour in culture) | TPA concentration (as low as) giving detectable increases in ERK phosphorylation (ERK phosphorylation; ex vivo exposure of clinical AML samples) | Cytotoxic effects by TPA concentration (primary AML cells [1]; clinical AML samples ex vivo, 32 nM vs 3.2 nM, unpublished observations) | Cytotoxic effects, cell viability and apoptosis assays (primary AML cells [1]; small panel of clinical AML samples, subset of AML cases) | TPA level in blood, average ([2]; immediately post-infusion) | TPA level in blood, average ([2]; one hour post infusion) | DLT's reported ([3]; CINJ TPA study) | Patients with grade III non-hematologic dose limiting toxicities (DLT) ([3]; last cohort, 0.188 mg/m^2 d1-5, 8-12) | Maximum tolerated TPA dose as a single agent ([3]; on d1-5 and 8-12) | Duration of stable disease ([3]; one AML patient, 8 TPA infusions) | Clinical response of chest wall mass ([3]; patient with relapsed and refractory Hodgkin's disease) | Persistence of decline in leukemic blasts ([3]; second AML patient) | Decline in the number of circulating blasts ([3]; second AML patient, following TPA administration) | Unusual untoward effects attributable to the agent [4] | Effect on TPA cytotoxicity (primary AML cells [5]) |
| --- | --- | --- | --- | --- | --- | --- | --- | --- | --- | --- | --- | --- | --- | --- | --- |
| CCCCCCCCCCCCCC(=O)O[C@@H]1[C@@H](C)[C@@]2(O)[C@@H](C=C(CO)C[C@]3(O)C(=O)C(C)=C[C@@H]23)[C@@H]2C(C)(C)[C@]12OC(C)=O [TPA, 12-O-tetradecanoylphorbol-13-acetate] | strongly induced | 0.032 nM | 32 nM is more cytotoxic than 3.2 nM | direct cytotoxic effects | 1.75 ng/ml blood and 2.8 nM | 0.93 ng/ml blood and 1.5 nM | grade 3 dyspnea, grade 3 hypoxia and a grade 3 episode of hypotension | 2 out of 3 | 0.125 mg/m^2/d | > 5 months | partial remission | 4 weeks | 5 fold |  |  |
| C[C@@H]1C[C@H]2[C@@H]3CCC4=CC(=O)C=C[C@]4(C)[C@@]3(F)[C@@H](O)C[C@]2(C)[C@@]1(O)C(=O)CO [dexamethasone] |  |  |  |  |  |  |  |  |  |  |  |  |  | did not detect any unusual untoward effects; also recorded: did not, detect any unusual untoward elects | enhance TPA cytotoxicity |
